Data: patent USRE48335E1, “Polymyxin derivatives as antimicrobial compounds” (priority 2014, dated 2020)
Values after ≈ are worked out from the molar mass of the structure shown. Positions of bridges follow the written chain, without caps; N, C: chain ends. Non-standard residues stand in square brackets, D forms with d. Residues, ends and D or L forms follow the SMILES beside them. *: point of attachment. Benzoyl(4-CF3) = O=C(c1ccc(C(F)(F)F)cc1)*; X7 = O=C(c1cc(F)cc(C(F)(F)F)c1)*; X8 = O=C(c1ccc(C(F)(F)F)cc1Cl)*; Nonanoyl = CCCCCCCCC(=O)*; X1 = CC[C@H](C)CCCCC(=O)*; Octanoyl = CCCCCCCC(=O)*; Dab = NCC[C@H](N)C(=O)O; Abu = CC[C@H](N)C(=O)O; Dap = NC[C@H](N)C(=O)O

Legend:
[1] = tested on: Acinetobacter baumannii
Outline: (§1)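 Using polymyxin B sulphate as comparator control, the trifluoroacetate-salt lipopeptides were assayed in CAMHB by broth microdilution to CLSI M100-S18, and MICs recorded.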

[2] = tested on: Enterobacter cloacae
Outline: as §1

[3] = tested on: Klebsiella pneumoniae
Outline: as §1

[4] = tested on: Pseudomonas aeruginosa
Outline: as §1

[5] = tested on: A. baumannii ATCC 19606; assay: In vivo efficacy in mouse blood infection model (neutropenic Swiss mice); conditions: compound, free base 4 mg/kg intravenously 2 h after inoculation, blood at 4 h
Outline: (§2)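 Activity expressed as Δlog10 CFU/mL blood, treated minus saline control, 4 h after a single 4 mg/kg (free base) i.v. dose given 2 h post-infection. Bloodstream infection from i.v. early log-phase inoculum in Swiss mice made neutropenic by i.p. cyclophosphamide on days −4 (150 mg/kg) and −1 (100 mg/kg).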

[6] = tested on: K. pneumoniae FADDI-KP032; assay: as above; conditions: compound, free base 4 mg/kg intravenously 2 h after inoculation, blood at 4 h
Outline: as §2

[7] = tested on: P. aeruginosa ATCC 27853; assay: as above; conditions: compound, free base 4 mg/kg intravenously 2 h after inoculation, blood at 4 h
Outline: as §2

| Compound | MIC [1] [µg/mL] | Minimum inhibitory concentration, Ab A ATCC 17978 [1] [µg/mL] | Minimum inhibitory concentration, Ab ATCC 19606 [1] [µg/mL] | Minimum inhibitory concentration, Ab FADDI-AB034 [1] [µg/mL] | Minimum inhibitory concentration, Ec FADDI-EC001 [2] [µg/mL] | Minimum inhibitory concentration, Ec FADDI-EC003 [2] [µg/mL] | Minimum inhibitory concentration, Ec FADDI-EC006 [2] [µg/mL] | MIC [3] [µg/mL] | MIC [4] [µg/mL] | Minimum inhibitory concentration, Pa ATCC 27853 [4] [µg/mL] | Minimum inhibitory concentration, Pa FADDI-PA022 [4] [µg/mL] | Minimum inhibitory concentration, Pa FADDI-PA025 [4] [µg/mL] | Δ log (Treated-Control at 4 h) [5] [log10 CFU/mL] | Δ log (Treated-Control at 4 h) [6] [log10 CFU/mL] | Δ log (Treated-Control at 4 h) [7] [log10 CFU/mL] | further results |
| --- | --- | --- | --- | --- | --- | --- | --- | --- | --- | --- | --- | --- | --- | --- | --- | --- |
| CC[C@@H]1NC(=O)[C@@H](CC(C)C)NC(=O)[C@H](CCN)NC(=O)[C@@H](NC(=O)[C@H](CN)NC(=O)[C@@H](NC(=O)[C@H](CCN)NC(=O)c2ccc(C(F)(F)F)cc2Cl)[C@@H](C)O)CCNC(=O)[C@H]([C@@H](C)O)NC(=O)[C@H](CCN)NC(=O)[C@H](CCN)NC1=O [Compound 109] (X8-[Dab]T[Dap][Dab][Dab][dL][Abu][Dab][Dab]T; lactam 4-C) | 0.25 (≈ 0.209 µM) | 1 (≈ 0.838 µM) | 0.25 (≈ 0.209 µM) | 1 (≈ 0.838 µM) | 1 (≈ 0.838 µM) | <0.125 | 0.25 (≈ 0.209 µM) | 0.25 (≈ 0.209 µM) | 0.5 (≈ 0.419 µM) | 0.5 (≈ 0.419 µM) | 0.5 (≈ 0.419 µM) | 2 (≈ 1.68 µM) | −1.54 | −3.47 | −2.68 |  |
| CC[C@@H]1NC(=O)[C@@H](CC(C)C)NC(=O)[C@H](CCN)NC(=O)[C@@H](NC(=O)[C@H](CN)NC(=O)[C@@H](NC(=O)[C@H](CCN)NC(=O)c2ccc(C(F)(F)F)cc2)[C@@H](C)O)CCNC(=O)[C@H]([C@@H](C)O)NC(=O)[C@H](CCN)NC(=O)[C@H](CCN)NC1=O [Compound 74] ({Benzoyl(4-CF3)}-[Dab]T[Dap][Dab][Dab][dL][Abu][Dab][Dab]T; lactam 4-C) | 0.5 (≈ 0.431 µM) | 0.5 (≈ 0.431 µM) | 0.5 (≈ 0.431 µM) | 1 (≈ 0.863 µM) | <0.125 | 0.25 (≈ 0.216 µM) | 2 (≈ 1.73 µM) | 0.25 (≈ 0.216 µM) | 0.5 (≈ 0.431 µM) | 0.5 (≈ 0.431 µM) | 0.5 (≈ 0.431 µM) | 2 (≈ 1.73 µM) | −2.34 | −2.94 | −3.10 |  |
| CC[C@H](C)CCCCC(=O)N[C@@H](CCN)C(=O)N[C@H](C(=O)N[C@H](CO)C(=O)N[C@H]1CCNC(=O)[C@H]([C@@H](C)O)NC(=O)[C@H](CCN)NC(=O)[C@H](CCN)NC(=O)[C@H]([C@@H](C)O)NC(=O)[C@@H](CC(C)C)NC(=O)[C@H](CCN)NC1=O)[C@@H](C)O [Compound 150, polymyxin D1] (X1-[Dab]T[dS][Dab][Dab][dL]T[Dab][Dab]T; lactam 4-C) | 0.25 (≈ 0.218 µM) |  |  |  |  |  |  | 0.5 (≈ 0.437 µM) | 4 (≈ 3.5 µM) |  |  |  | −1.46 | −3.77 | −0.29 | Minimum inhibitory concentration (MIC), Ab ATCC 17978 [1]: 0.25 µg/mL (≈ 0.218 µM); Minimum inhibitory concentration (MIC), Ab ATCC 19606 [1]: 0.25 µg/mL (≈ 0.218 µM); Minimum inhibitory concentration (MIC), Ab FADDI-AB034 [1]: 0.25 µg/mL (≈ 0.218 µM); Minimum inhibitory concentration (MIC), Ec FADDI-EC001 [2]: 0.5 µg/mL (≈ 0.437 µM); Minimum inhibitory concentration (MIC), Ec FADDI-EC003 [2]: 0.5 µg/mL (≈ 0.437 µM); Minimum inhibitory concentration (MIC), Ec FADDI-EC006 [2]: 0.5 µg/mL (≈ 0.437 µM); Minimum inhibitory concentration (MIC), Pa ATCC 27853 [4]: 4 µg/mL (≈ 3.5 µM); Minimum inhibitory concentration (MIC), Pa FADDI-PA022 [4]: 4 µg/mL (≈ 3.5 µM); Minimum inhibitory concentration (MIC), Pa FADDI-PA025 [4]: >32 µg/mL |
| CC[C@@H]1NC(=O)[C@@H](CC(C)C)NC(=O)[C@H](CCN)NC(=O)[C@@H](NC(=O)[C@H](CN)NC(=O)[C@@H](NC(=O)[C@H](CCN)NC(=O)c2cc(F)cc(C(F)(F)F)c2)[C@@H](C)O)CCNC(=O)[C@H]([C@@H](C)O)NC(=O)[C@H](CCN)NC(=O)[C@H](CCN)NC1=O [Compound 108] (X7-[Dab]T[Dap][Dab][Dab][dL][Abu][Dab][Dab]T; lactam 4-C) | 0.5 (≈ 0.425 µM) | 0.5 (≈ 0.425 µM) | 0.5 (≈ 0.425 µM) | 0.5 (≈ 0.425 µM) | 1 (≈ 0.849 µM) | 0.5 (≈ 0.425 µM) | 0.5 (≈ 0.425 µM) | 0.25 (≈ 0.212 µM) | 0.5 (≈ 0.425 µM) | 0.5 (≈ 0.425 µM) | 0.5 (≈ 0.425 µM) | 2 (≈ 1.7 µM) | −1.82 | −2.84 | −2.32 |  |
| CCCCCCCC(=O)N[C@@H](CCN)C(=O)N[C@H](C(=O)N[C@@H](CN)C(=O)N[C@H]1CCNC(=O)[C@H]([C@@H](C)O)NC(=O)[C@H](CCN)NC(=O)[C@H](CCN)NC(=O)[C@H](C)NC(=O)[C@@H](CC(C)C)NC(=O)[C@H](CCN)NC1=O)[C@@H](C)O [Compound 35] (Octanoyl-[Dab]T[Dap][Dab][Dab][dL]A[Dab][Dab]T; lactam 4-C) | 0.5 (≈ 0.455 µM) | 0.5 (≈ 0.455 µM) | 0.5 (≈ 0.455 µM) | 0.25 (≈ 0.227 µM) | <0.125 | 0.25 (≈ 0.227 µM) | <0.125 | <0.125 | 0.5 (≈ 0.455 µM) | 0.5 (≈ 0.455 µM) | 0.5 (≈ 0.455 µM) | 16 (≈ 14.6 µM) | −1.60 | −3.12 | −3.36 |  |
| CCCCCCCC(=O)N[C@@H](CCN)C(=O)N[C@H](C(=O)N[C@@H](CCN)C(=O)N[C@H]1CCNC(=O)[C@H]([C@@H](C)O)NC(=O)[C@H](CCN)NC(=O)[C@H](CCN)NC(=O)[C@H](C(C)C)NC(=O)[C@@H](CC(C)C)NC(=O)[C@H](CCN)NC1=O)[C@@H](C)O [Compound 23] (Octanoyl-[Dab]T[Dab][Dab][Dab][dL]V[Dab][Dab]T; lactam 4-C) | 0.5 (≈ 0.438 µM) | 0.5 (≈ 0.438 µM) | 0.5 (≈ 0.438 µM) | 0.25 (≈ 0.219 µM) | <0.125 | <0.125 | 0.25 (≈ 0.219 µM) | <0.125 | 1 (≈ 0.876 µM) | 1 (≈ 0.876 µM) | 1 (≈ 0.876 µM) | 4 (≈ 3.5 µM) | −2.82 | −3.88 | −2.48 |  |
| CCCCCCCC(=O)N[C@@H](CCN)C(=O)N[C@H](C(=O)N[C@@H](CN)C(=O)N[C@H]1CCNC(=O)[C@H]([C@@H](C)O)NC(=O)[C@H](CCN)NC(=O)[C@H](CCN)NC(=O)[C@H]([C@@H](C)O)NC(=O)[C@@H](Cc2ccccc2)NC(=O)[C@H](CCN)NC1=O)[C@@H](C)O [Compound 129] (Octanoyl-[Dab]T[Dap][Dab][Dab][dF]T[Dab][Dab]T; lactam 4-C) | 0.5 (≈ 0.43 µM) | 0.25 (≈ 0.215 µM) | 0.5 (≈ 0.43 µM) | 0.25 (≈ 0.215 µM) | 0.5 (≈ 0.43 µM) | <0.125 | 0.5 (≈ 0.43 µM) | <0.125 | 0.5 (≈ 0.43 µM) | 0.5 (≈ 0.43 µM) | 1 (≈ 0.86 µM) | 2 (≈ 1.72 µM) | −1.42 | −3.64 | −3.45 |  |
| CCCCCCCCC(=O)N[C@@H](CCN)C(=O)N[C@H](C(=O)N[C@@H](CN)C(=O)N[C@H]1CCNC(=O)[C@H]([C@@H](C)O)NC(=O)[C@H](CCN)NC(=O)[C@H](CCN)NC(=O)[C@H]([C@@H](C)O)NC(=O)[C@@H](CC(C)C)NC(=O)[C@H](CCN)NC1=O)[C@@H](C)O [Compound 58] (Nonanoyl-[Dab]T[Dap][Dab][Dab][dL]T[Dab][Dab]T; lactam 4-C) | 0.25 (≈ 0.219 µM) | 0.5 (≈ 0.437 µM) | 0.25 (≈ 0.219 µM) | 1 (≈ 0.875 µM) | 0.25 (≈ 0.219 µM) | 0.25 (≈ 0.219 µM) | 0.5 (≈ 0.437 µM) | 0.25 (≈ 0.219 µM) | 0.5 (≈ 0.437 µM) | 0.5 (≈ 0.437 µM) | 2 (≈ 1.75 µM) | 2 (≈ 1.75 µM) | −2.15 | −3.21 | −3.00 |  |
